Patent publication US6756368B1, “Use of cobalt chelates for treating or preventing virus infection” (The Trustees of Columbia University in the City of New York, priority 1999, dated 2004)
Entries after “also recorded” stand apart in the source; their conditions may differ.

Tests used:
VZV = VZV plaque formation; format: cell-based; conditions: data not shown
influenza virus = assay: Influenza virus plaque assay on MDCK cells; format: cell-based, influenza virus strain PR8; conditions: magnitude not quantifiable
Vero cells = assay: Cytotoxic effect on Vero cell monolayers
Ad-CMV-null = assay: Fluorescence focus assay, AdCMV-null on 293T cells; format: cell-based, adenovirus
Protocol: A549 or 293 cell monolayers were infected with Ad2 or Ad-CMV-null at 0.1 fluorescence focus units (FFUs) per cell for 2 h in 2% BCS DMEM in the presence and absence of 50 μg/ml CTC-96. At 29 h postinfection the plates were washed twice with PBS and fixed with methanol for 4 min at room temperature. Cells were washed twice with PBS, incubated in 500 μl 1:100 rabbit polyclonal anti-adenovirus serum in PBS for 30 min at room temperature and washed with PBS. Plates were then incubated in 500 μl 1:40 goat anti-rabbit IgG conjugated FITC in PBS. Foci were visualized using a Leitz Dialux microscope with an optical system for the selective visualization of FITC and then counted.
293T cells were plated on 35 mm dishes. Cells should be @5×10^6 cells/plate.
293T Cells were infected with AdCMV-null @ moi=0.1 (i.e. 0.1 FFU/cell)
virus was diluted in D2 media +/− 50 μg/ml CTC96 D2=2% serum DMEM
Plates were overlaid with 2.5 ml D2 +/− 50 μg/ml CTC96 and incub. @37° C. for 28 h (total)

HSV-1 [1] = assay: Adsorption assay, 3H labeled HSV-1 binding to Vero cells; conditions: 50 μg/ml, 4° C., MOI 100
HSV-1 [2] = format: cell-based, HSV-1 Glasgow strain 17; conditions: CTC-96 added at 16 hpi, virus harvested 4 hours later
HSV-1 [3] = assay: Virus entry assay, αTIF immunofluorescence; format: cell-based, HSV-1 Glasgow strain 17
Protocol: (i) αTIF immunofluorescence. […] Pre-warmed media (37° C.) was added to each plate, incubated at 37° C. for the indicated times and washed twice with ice cold PBS on ice. The infected cells were fixed in 3.7% formaldehyde in PBS for 30 min at room temperature and washed with PBS. The fixed monolayers were permeabilized in −20° C. acetone at −20° C. for 10 min. Cells were washed with water and then PBS. Fixed cells were incubated in 10% normal goat serum (NGS; Roche, Indianapolis, Ind.) in 0.1% Tween 20 in PBS (PBST) for 20 min at RT and washed twice with PBST. Cover slips were then incubated in PBST containing 1% NGS and 1:200 polyclonal antibody anti-VP16 antibody (Clontech Laboratories, Inc.) for 30 min and washed 6 times with PBST. The infected cell monolayers were then incubated in PBST containing 1% NGS and 1:200 goat anti-rabbit IgG antibody conjugated to fluorescein isothiocyanate (FITC; Kirkegaard and Perry Laboratories, Inc.) for 30 min and washed 6 times with PBST. The cover slips were then mounted on slides in gel/mount solution (Biomeda, Fisher, Springfield, N.J.) and viewed with a 100× lens of a Zeiss LSM 4100 confocal laser scanning system attached to a Zeiss Axiovert 100TV inverted microscope. Each image is the average of 1 μm Z series.
There are several approaches to assessing the ability of virus to adsorb and enter a cell. […]

HSV-1 [4] = assay: Fractionation and in situ localization of virus DNA; format: cell-based, HSV-1 Glasgow strain 17
HSV-1 [5] = format: cell-based, HSV-1 Glasgow strain 17
HSV-1 [6] = assay: Accumulation of virus-specified proteins (Western blot); format: cell-based, HSV-1 Glasgow strain 17
Protocol: Protein preparation and western blot analysis were performed as previously described (54). Briefly, at the indicated times the infected cells were collected by centrifugation, resuspended in 1.5×SDS-PAGE sample buffer, and boiled for 10 min. The proteins were separated by SDS-PAGE and electrophorectically transferred to nitrocellulose membranes. Immunodetection of proteins was performed using the following antibodies: ICP0, rabbit polyclonal antibody CLU7 (54); ICP27, rabbit polyclonal antibody CLU38 (54); glycoprotein B (gB), rabbit polyclonal antibody R69 (provided by T. Kristie, National Institute of Allergy and Infectious Diseases) [Zhang, et al. 1991]; and _TIF, rabbit polyclonal antibody anti-VP16 (Clontech Laboratories Inc., Palo Alto, Calif.). The secondary antibodies used were goat anti-rabbit and goat anti-mouse IgG conjugated to horseradish peroxidase (Kirkegaard and Perry Laboratories, Inc., Gaithersburg, Md.). Immunoblots were developed as previously described (55).
Accumulation of Virus-Specified Proteins in the Presence of Drug. Failure to efficiently replicate virus DNA could result from a specific block of replication per se or because virus-specified gene expression is affected by drug. To address this issue cells were infected with HSV-1 at an moi of 5, 50 μg/ml of drug was either added at time 0, 1 hr pi or not added and at intervals post infection the infected cells were harvested and proteins were extracted and assayed for the presence of virus specified polypeptides by Western blot. […] The residual reactivity with ∝-TIF in the sample treated at T=0 results from protein associated with the infecting virions. There is no increase in the accumulation of this protein during the course of infection. It is not possible to exclude the possibility that virus never enters these cells and that the ∝-TIF that is detected results from cell associated virus.

SMILES: CC(/C=C(/C)[O-])=NCCN=C(C)/C=C(/C)[O-].Cc1ncc[nH]1.Cc1ncc[nH]1.[Br-].[Co+3] [CTC-96]
- VZV plaque formation (VZV): inhibition of VZV plaque formation
- effect on influenza virus infection (influenza virus): positive virus inhibitory effect; also recorded: effective against influenza virus infection
- effect on the cell monolayer (Vero cells; 50 μg/ml, after two days of incubation): severely affected
- cytotoxicity on Vero cell monolayers (Vero cells; prolonged exposure (several days) to 50 μg/ml): cytotoxic effects; also recorded: cytotoxicity
- adenovirus foci (Ad-CMV-null; 50 μg/ml, 293T cells, AdCMV-null moi 0.1, 28 h): NO FOCI ON EITHER PLATE
- % Inhibition (Ad-CMV-null; Ad-CMV-null, 293T, 50 μg/ml of CTC-96, fluorescence focus assay): 100%
- adsorption (binding) of HSV-1 to Vero cell monolayers (HSV-1 [1]): no effect
- virus titers (HSV-1 [2]): negligible drop in virus titers
- virus entry / nuclear accumulation of αTIF (HSV-1 [3]; 50 μg/ml, MOI 100, 30-60 min after shift to 37° C.): no evidence for virus entering the cell; also recorded: unable to accumulate in the nucleus; also recorded: prevented nuclear accumulation
- virus bound to cells (HSV-1 [3]; 5 min after shift up to 37° C.): less virus bound
- nuclear accumulation of 3H labeled HSV-1 DNA (autoradiography) (HSV-1 [4]): prevented the nuclear accumulation
- virus DNA in nuclear and cytoplasmic fractions (HSV-1 [4]): very little detectable virus DNA in either fraction; also recorded: no significant increase in nuclear associated HSV-1 specific DNA
- syncytia formation by a syncytia forming virus (HSV-1 [5]; CTC-96 added at 1 or 10 hpi): unable to form syncytia
- cell-to-cell spread (multi-celled foci) (HSV-1 [5]; CTC-96 added at 8 hpi): unable to form multi-celled foci
- accumulation of virus-specified proteins (HSV-1 [6]; 50 μg/ml added 1 hr pi / after initiation of infection): only a small effect; also recorded: little or no effect
- accumulation of gB (early) and α-TIF (late) (HSV-1 [6]; 50 μg/ml added at time 0): no measurable accumulation
- synthesis of ICP0 and ICP27 (immediate early) (HSV-1 [6]; 50 μg/ml added at time 0): little if any synthesis
- accumulation of virus proteins of all kinetic classes (HSV-1 [6]; 50 μg/ml present from the initiation of infection): prevented the accumulation of gene products from all kinetic classes; also recorded: prevents synthesis of all kinetic classes of virus proteins
